Patent US12102089B2, “Method for inactivating mold spores” (DSM IP ASSETS B.V., priority 2017, dated 2024)

Experiments:
[1] = tested on: in-house strain of Aspergillus niger; assay: Heat treatment of in-house Aspergillus niger spores in ice tea with natamycin, visual growth; assay type: cell-based; design: key to growth or no growth: growth (+); no growth (−)
Experimental: Commercially available ice tea (Lipton, peach flavor, non-carbonated, 1.5 L) was adjusted to high water hardness by adding 1 ml of a solution of 39 g CaCl2 and 27 g MgCl2 added to 934 g water. ⅓ of this ice tea preparation (the pH of which was 3.15) was left as-such, ⅓ of the preparation was enriched with 5 ppm natamycin and ⅓ of the preparation was enriched with 10 ppm natamycin. Samples of 5 ml were made from each preparation in 15 ml sterile plastic tubes. Of each preparation 8 samples were pre-heated to the desired pasteurization temperature using a water bath. Temperatures used were RT, 60, 65, 70, 75, 80, 85 and 90° C. When the desired temperature was reached, 100 μl of a 2500 spores/ml spore suspension of Aspergillus niger ATCC 9029AA was added to each tube. Subsequently, the samples were kept for 30 seconds at the temperature in question in the water bath. Next, the samples were cooled on ice to a temperature of 25° C. Samples were incubated at 25° C. and visually examined for growth (formation of mold flakes or turbidity) for two months. Additionally, samples were enumerated according to ISO protocol 21527-1.2008 on day 0 (before heat treatment) and day 1 (after heat treatment) to count immediate loss of viability. […] For the results, see Table 1. […] For comparative reasons, Example 1 was repeated with an in-house strain of Aspergillus niger. […] For the results, see Table 2.

[2] = LC-MS/MS analysis of natamycin and mycosamine in heated ice tea sample; assay type: physicochemical; conditions: 10 ppm natamycin at t=0, heated at 70° C.
Experimental: For the analysis of mycosamine at low concentrations (ppb level) a sample preparation is used with a cation exchange SPE material to isolate mycosamine from the sample matrix and/or remove possible interfering impurities therefrom. The analysis was performed on LC-MS/MS on a ZIC-HILIC column. For the identification and (semi) quantification a reference of mycosamine was prepared. The concentration of mycosamine in this reference was determined with ^1H-NMR.

C[C@@H]1C/C=C/C=C/C=C/C=C/[C@H](O[C@@H]2O[C@H](C)[C@@H](O)[C@H](N)[C@@H]2O)C[C@@H]2O[C@](O)(C[C@@H](O)C[C@H]3O[C@@H]3/C=C/C(=O)O1)C[C@H](O)[C@H]2C(=O)O [natamycin]
growth or no growth ([1]; 60°C, 5 ppm, day 1): − | growth or no growth ([1]; 60°C, 5 ppm, day 2): − | growth or no growth ([1]; 60°C, 5 ppm, day 3): − | growth or no growth ([1]; 60°C, 5 ppm, day 4): − | growth or no growth ([1]; 60°C, 5 ppm, day 5): − | growth or no growth ([1]; 60°C, 5 ppm, day 6): − | growth or no growth ([1]; 60°C, 5 ppm, day 7): + | growth or no growth ([1]; 60°C, 5 ppm, day 8): + | growth or no growth ([1]; 60°C, 5 ppm, day 9): + | growth or no growth ([1]; 60°C, 5 ppm, day 10): + | growth or no growth ([1]; 60°C, 5 ppm, day 11): + | growth or no growth ([1]; 60°C, 5 ppm, day 12): + | growth or no growth ([1]; 60°C, 5 ppm, day 13): + | growth or no growth ([1]; 60°C, 5 ppm, day 14): + | growth or no growth ([1]; 60°C, 10 ppm, day 1): − | growth or no growth ([1]; 60°C, 10 ppm, day 2): − | growth or no growth ([1]; 60°C, 10 ppm, day 3): − | growth or no growth ([1]; 60°C, 10 ppm, day 4): − | growth or no growth ([1]; 60°C, 10 ppm, day 5): − | growth or no growth ([1]; 60°C, 10 ppm, day 6): − | growth or no growth ([1]; 60°C, 10 ppm, day 7): − | growth or no growth ([1]; 60°C, 10 ppm, day 8): − | growth or no growth ([1]; 60°C, 10 ppm, day 9): − | growth or no growth ([1]; 60°C, 10 ppm, day 10): − | growth or no growth ([1]; 60°C, 10 ppm, day 11): + | growth or no growth ([1]; 60°C, 10 ppm, day 12): + | growth or no growth ([1]; 60°C, 10 ppm, day 13): + | growth or no growth ([1]; 60°C, 10 ppm, day 14): + | germination ([1]; 65° C., 70° C. and 80° C., in the presence of natamycin): no germination occurred | growth or no growth ([1]; 65°C, 5 ppm, day 1): − | growth or no growth ([1]; 65°C, 5 ppm, day 2): − | growth or no growth ([1]; 65°C, 5 ppm, day 3): − | growth or no growth ([1]; 65°C, 5 ppm, day 4): − | growth or no growth ([1]; 65°C, 5 ppm, day 5): − | growth or no growth ([1]; 65°C, 5 ppm, day 6): − | growth or no growth ([1]; 65°C, 5 ppm, day 7): − | growth or no growth ([1]; 65°C, 5 ppm, day 8): − | growth or no growth ([1]; 65°C, 5 ppm, day 9): − | growth or no growth ([1]; 65°C, 5 ppm, day 10): − | growth or no growth ([1]; 65°C, 5 ppm, day 11): − | growth or no growth ([1]; 65°C, 5 ppm, day 12): − | growth or no growth ([1]; 65°C, 5 ppm, day 13): − | growth or no growth ([1]; 65°C, 5 ppm, day 14): − | growth or no growth ([1]; 65°C, 10 ppm, day 1): − | growth or no growth ([1]; 65°C, 10 ppm, day 2): − | growth or no growth ([1]; 65°C, 10 ppm, day 3): − | growth or no growth ([1]; 65°C, 10 ppm, day 4): − | growth or no growth ([1]; 65°C, 10 ppm, day 5): − | growth or no growth ([1]; 65°C, 10 ppm, day 6): − | growth or no growth ([1]; 65°C, 10 ppm, day 7): − | growth or no growth ([1]; 65°C, 10 ppm, day 8): − | growth or no growth ([1]; 65°C, 10 ppm, day 9): − | growth or no growth ([1]; 65°C, 10 ppm, day 10): − | growth or no growth ([1]; 65°C, 10 ppm, day 11): − | growth or no growth ([1]; 65°C, 10 ppm, day 12): − | growth or no growth ([1]; 65°C, 10 ppm, day 13): − | growth or no growth ([1]; 65°C, 10 ppm, day 14): − | growth or no growth ([1]; 70°C, 5 ppm, day 1): − | growth or no growth ([1]; 70°C, 5 ppm, day 2): − | growth or no growth ([1]; 70°C, 5 ppm, day 3): − | growth or no growth ([1]; 70°C, 5 ppm, day 4): − | growth or no growth ([1]; 70°C, 5 ppm, day 5): − | growth or no growth ([1]; 70°C, 5 ppm, day 6): − | growth or no growth ([1]; 70°C, 5 ppm, day 7): − | growth or no growth ([1]; 70°C, 5 ppm, day 8): − | growth or no growth ([1]; 70°C, 5 ppm, day 9): − | growth or no growth ([1]; 70°C, 5 ppm, day 10): − | growth or no growth ([1]; 70°C, 5 ppm, day 11): − | growth or no growth ([1]; 70°C, 5 ppm, day 12): − | growth or no growth ([1]; 70°C, 5 ppm, day 13): − | growth or no growth ([1]; 70°C, 5 ppm, day 14): − | growth or no growth ([1]; 70°C, 10 ppm, day 1): − | growth or no growth ([1]; 70°C, 10 ppm, day 2): − | growth or no growth ([1]; 70°C, 10 ppm, day 3): − | growth or no growth ([1]; 70°C, 10 ppm, day 4): − | growth or no growth ([1]; 70°C, 10 ppm, day 5): − | growth or no growth ([1]; 70°C, 10 ppm, day 6): − | growth or no growth ([1]; 70°C, 10 ppm, day 7): − | growth or no growth ([1]; 70°C, 10 ppm, day 8): − | growth or no growth ([1]; 70°C, 10 ppm, day 9): − | growth or no growth ([1]; 70°C, 10 ppm, day 10): − | growth or no growth ([1]; 70°C, 10 ppm, day 11): − | growth or no growth ([1]; 70°C, 10 ppm, day 12): − | growth or no growth ([1]; 70°C, 10 ppm, day 13): − | growth or no growth ([1]; 70°C, 10 ppm, day 14): − | growth or no growth ([1]; 75°C, 5 ppm, day 1): − | growth or no growth ([1]; 75°C, 5 ppm, day 2): − | growth or no growth ([1]; 75°C, 5 ppm, day 3): − | growth or no growth ([1]; 75°C, 5 ppm, day 4): − | growth or no growth ([1]; 75°C, 5 ppm, day 5): − | growth or no growth ([1]; 75°C, 5 ppm, day 6): − | growth or no growth ([1]; 75°C, 5 ppm, day 7): − | growth or no growth ([1]; 75°C, 5 ppm, day 8): − | growth or no growth ([1]; 75°C, 5 ppm, day 9): − | growth or no growth ([1]; 75°C, 5 ppm, day 10): − | growth or no growth ([1]; 75°C, 5 ppm, day 11): − | growth or no growth ([1]; 75°C, 5 ppm, day 12): − | growth or no growth ([1]; 75°C, 5 ppm, day 13): − | growth or no growth ([1]; 75°C, 5 ppm, day 14): − | growth or no growth ([1]; 75°C, 10 ppm, day 9): − | growth or no growth ([1]; 75°C, 10 ppm, day 10): − | germination ([1]; RT and 60° C., 5 ppm natamycin): delayed germination | germination ([1]; RT and 60° C., 10 ppm natamycin): longer delay | natamycin found in sample ([2]; Example 1 ice tea sample (pH 3.15)): < 0.04 mg/L | natamycin found in sample ([2]; Example 2 ice tea sample): < 0.04 mg/L | natamycin found in sample ([2]; Example 3 ice tea sample): < 0.04 mg/L
